In one test the test system is Candida albicans #10231. Kind of test: Challenge Test (Antimicrobial Effectiveness Test), yeast inoculum. Format: cell-based. Also noted: key to Challenge Test result: Yeast C. albicans: Fail: Recovery of surviving organisms at 14 days was a failing result for the challenge test. The conditions noted are these: for Challenge Test result: Yeast C. albicans: stabilized acrylic latex A, DN 22%. How it is done:
The following cultures were obtained from American Type Culture Collection (ATCC) at 10801 University Boulevard, Manassas, Va. 20110-2209: Escherichia coli #11229, Pseudomonas aeruginosa #15442, Candida albicans #10231, Aspergillus niger #6275.
The yeast inoculum was 0.10 ml of a 72-hr±4 hr culture of C. albicans in 25 grams of sample to give approximately 2×10^5 CFU/g. The C. albicans culture was grown in Potato Dextrose Broth (Difco Laboratories, Detroit, Mich.) at 28° C.
Each of the 25-g samples were inoculated or challenged with 0.10 ml of the bacterial inoculum, the yeast inoculum, and the mold inoculum respectively on day-0 and day-14. All samples were stored at ambient temperature. Each sample (10 microliter) was streaked on appropriate agar plates (bacteria on Tryptic Soy Agar (Difco Laboratories, Detroit, Mich.) plates with neutralizer and yeast/mold on Potato Dextrose Agar (Difco Laboratories, Detroit, Mich.) plates with neutralizer) on day-1, day-2, day-3, day-7, day-14, day-15, day-16, day-17, day-21, and day-28 to test for survivors. Streaked plates were incubated at appropriate temperature and time (48-hr at 35±2° C. for bacteria and 72-hr at 28±2° C. for yeast/mold). On day-14, each sample was re-inoculated with appropriate inoculum after streaking on agar plates. Plates were read after incubation time. Recovery of surviving organisms at 14 days was a failing result for the challenge test.
Biocides were always added after the reaction has been completed and after the batch has been cooled to <50° C. The desired temperature was dependent on the specific biocide. Many biocides become deactivated if exposed to high temperatures for an extended time. Each biocide was diluted with about 5× its weight with DI water and slowly added to the batch with good agitation. The dilution is to prevent the biocide from shocking the latex. The batch was mixed for a minimum of 20 minutes after the biocide was added to ensure good incorporation. If any temporary destabilization to the latex had occurred, it had time to recover prior to filtration.
The Challenge Test is a qualitative laboratory procedure used to differentiate poorly and marginally preserved products from well-preserved products. Products are intentionally inoculated with test organisms and then evaluated by use of streak plating technique to determine if microbial reduction has been attained.

In test [1] the test system is Escherichia coli #11229, Pseudomonas aeruginosa #15442. Kind of test: Challenge Test (Antimicrobial Effectiveness Test), bacterial inoculum (1:1 mixture). It counts as cell-based, E. coli & P. aeruginosa. The conditions noted are these: stabilized acrylic latex A, DN 22%. How it is done:
The following cultures were obtained from American Type Culture Collection (ATCC) at 10801 University Boulevard, Manassas, Va. 20110-2209: Escherichia coli #11229, Pseudomonas aeruginosa #15442, Candida albicans #10231, Aspergillus niger #6275. The bacterial inoculum was 0.10 ml of a 1:1 mixture of the 24-hr±4 hr culture of E. coli and P. aeruginosa in 25 grams of sample to give approximately 4×10^6 CFU/g. Both E. coli culture and the P. aeruginosa culture were grown in Nutrient Broth (Difco Laboratories, Detroit, Mich.) at 35° C. Each of the 25-g samples were inoculated or challenged with 0.10 ml of the bacterial inoculum, the yeast inoculum, and the mold inoculum respectively on day-0 and day-14. All samples were stored at ambient temperature. Each sample (10 microliter) was streaked on appropriate agar plates (bacteria on Tryptic Soy Agar (Difco Laboratories, Detroit, Mich.) plates with neutralizer and yeast/mold on Potato Dextrose Agar (Difco Laboratories, Detroit, Mich.) plates with neutralizer) on day-1, day-2, day-3, day-7, day-14, day-15, day-16, day-17, day-21, and day-28 to test for survivors. Streaked plates were incubated at appropriate temperature and time (48-hr at 35±2° C. for bacteria and 72-hr at 28±2° C. for yeast/mold). On day-14, each sample was re-inoculated with appropriate inoculum after streaking on agar plates. Plates were read after incubation time. Recovery of surviving organisms at 14 days was a failing result for the challenge test. Biocides were always added after the reaction has been completed and after the batch has been cooled to <50° C. The desired temperature was dependent on the specific biocide. Many biocides become deactivated if exposed to high temperatures for an extended time. Each biocide was diluted with about 5× its weight with DI water and slowly added to the batch with good agitation. The dilution is to prevent the biocide from shocking the latex. The batch was mixed for a minimum of 20 minutes after the biocide was added to ensure good incorporation. If any temporary destabilization to the latex had occurred, it had time to recover prior to filtration. The Challenge Test is a qualitative laboratory procedure used to differentiate poorly and marginally preserved products from well-preserved products. Products are intentionally inoculated with test organisms and then evaluated by use of streak plating technique to determine if microbial reduction has been attained.

[2] abbreviates: 0.10% Bioban CS-1135, 0.00% Bronopol, pH 6.68.
The mark [3] stands for this setting: 0.20% Bioban CS-1135, 0.00% Bronopol, pH 6.69.
Setting [4] is: 0.80% Bioban CS-1135, 0.00% Bronopol, pH 6.62.
The mark [5] stands for this setting: 1.20% Bioban CS-1135, 0.00% Bronopol, pH 6.64.
Where [6] appears, read: 2.00% Bioban CS-1135, 0.00% Bronopol, pH 6.82.
Setting [7] is: 0.10% Bronopol (30% active), 0.00% Bioban CS-1135, pH 6.64, Table 1.
Where [8] appears, read: 0.10% Bronopol (30% active), 0.00% Dowicil 75, pH 6.64, Table 3.
The mark [9] stands for this setting: 0.20% Bronopol (30% active), 0.00% Bioban CS-1135, pH 6.65, Table 1.
Setting [10] is: 0.20% Bronopol (30% active), 0.00% Dowicil 75, pH 6.65, Table 3.
Setting [11] is: 0.50% Bronopol (30% active), 0.00% Bioban CS-1135, pH 6.58, Table 1.
[12] abbreviates: 0.50% Bronopol (30% active), 0.00% Dowicil 75, pH 6.58, Table 3.
The mark [13] stands for this setting: 0.80% Bronopol (30% active), 0.00% Bioban CS-1135, pH 6.57, Table 1.
The mark [14] stands for this setting: 0.80% Bronopol (30% active), 0.00% Dowicil 75, pH 6.57, Table 3.
The mark [15] stands for this setting: 1.20% Bronopol (30% active), 0.00% Bioban CS-1135, pH 6.57, Table 1.
Where [16] appears, read: 1.20% Bronopol (30% active), 0.00% Dowicil 75, pH 6.57, Table 3.

The values that follow come from patent US7718715B2, “pH-modified latex comprising a synergistic combination of biocides” (S.C. Johnson & Son, Inc., priority 2004, dated 2010).

Structures are written as SMILES.

For the molecule `CC1(C)COCN1` [Bioban CS-1135, 4,4-dimethyl-oxazolidine], the “Challenge Test result: Yeast C. albicans” value with Candida albicans #10231 (setting [2]) was “Fail”; in the test with Candida albicans #10231 (setting [3]), “Fail”; in the test on Candida albicans #10231 (setting [4]), “Fail”; in the test on Candida albicans #10231 (setting [5]) it was “Fail”; in the test with Candida albicans #10231 (setting [6]), “Pass”. Further, in the test on Candida albicans #10231 (BIOBAN CS-1135 at 1.2%, acrylic latex A), the “killing of yeast (C. albicans)” value is “failed to kill”. Besides, the “control of Candida albicans” value in the test on Candida albicans #10231 (maximum allowable level, test stabilized acrylic latex) was “failed to control”. In addition, the “Challenge Test result: Bacteria E. coli & P. aeruginosa” value in test [1] (setting [2]), in test [1] (setting [3]), in test [1] (setting [4]), in test [1] (setting [5]) and in test [1] (setting [6]) was “Pass” in each case.
On to `O=[N+]([O-])C(Br)(CO)CO` [Bronopol, 2-bromo-2-nitro-1,3-propanediol], for which the “Challenge Test result: Yeast C. albicans” value in the test with Candida albicans #10231 (setting [7]) was “Fail”; in the test with Candida albicans #10231 (setting [8]) it was “Pass”; in the test with Candida albicans #10231 (setting [9]), “Fail”; in the test on Candida albicans #10231 (setting [10]), “Pass”; in the test on Candida albicans #10231 (setting [11]), “Pass”; with Candida albicans #10231 (setting [12]), “Pass”. In addition, the “Challenge Test result: Yeast C. albicans” value in the test with Candida albicans #10231 (setting [13]), in the test with Candida albicans #10231 (setting [14]), in the test with Candida albicans #10231 (setting [15]) and in the test on Candida albicans #10231 (setting [16]) was “Pass” each time. The “Challenge Test result: Bacteria E. coli & P. aeruginosa” value in test [1] (setting [7]), in test [1] (setting [8]), in test [1] (setting [9]), in test [1] (setting [10]), in test [1] (setting [11]) and in test [1] (setting [12]) was “Pass” in each case. Further, the “Challenge Test result: Bacteria E. coli & P. aeruginosa” value in test [1] (setting [13]), in test [1] (setting [14]), in test [1] (setting [15]) and in test [1] (setting [16]) was “Pass” in each case.
